The target of one test is NAMPT (Homo sapiens, UniProt P43490). The experiment in a line: TR-FRET Binding Assay of NAMPT with PRPP. To be noted: with 200 μM PRPP and 2.5 mM ATP; 2 nM NAMPT, 2 nM probe, 16 hours equilibration. The method, boiled down: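 Read-out is TR-FRET after a 16 h equilibration allowing possible compound modification by the enzyme. Final mix: 2 nM NAMPT, 2 nM probe, 1 nM Tb-anti-His antibody, 200 μM PRPP, 2.5 mM ATP, 2% DMSO.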

Test [1] concerns the target NAMPT (human, recombinant, C-terminally His-tagged) (Homo sapiens, UniProt P43490). The experiment in a line: Time-Resolved Fluorescence Resonance Energy Transfer (TR-FRET) Binding Assay of NAMPT. To be noted: without substrates; 6.8 nM NAMPT, 200 nM probe, 3 hours equilibration. The method, boiled down:
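Competitive binding against an Oregon Green 488 tracer (200 nM), 6.8 nM His-tagged enzyme, 1 nM Tb antibody, 2% DMSO, 3 h at RT. IC50 derived from TR-FRET ratios.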
On the technique in general: In TR-FRET formats the signal depends on donor and acceptor labels being close together.

A further test relates to PC3 cells. Description: NAMPT Cell Proliferation Assay. The test is classed as cell-based. To be noted: Homo sapiens, PC-3, 120 h, 5 days incubation, cell viability by Cell Titer Glo. The method, boiled down: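 Proliferation of PC3 cells treated 5 days with a 10-fold compound series (top 10 μM) was quantified by Cell Titer Glo luminescence; IC50s were fitted from percent inhibition.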
Background: ATP-based viability assays read luminescence as a measure of living cells.

IC50 data for 25 molecules are collected here from patent publication US9187472B2 (AbbVie Inc., priority 2012, dated 2015).

In general, IC50 refers to the midpoint of a concentration-inhibition curve.

Chain of NAMPT (P43490 whole entry): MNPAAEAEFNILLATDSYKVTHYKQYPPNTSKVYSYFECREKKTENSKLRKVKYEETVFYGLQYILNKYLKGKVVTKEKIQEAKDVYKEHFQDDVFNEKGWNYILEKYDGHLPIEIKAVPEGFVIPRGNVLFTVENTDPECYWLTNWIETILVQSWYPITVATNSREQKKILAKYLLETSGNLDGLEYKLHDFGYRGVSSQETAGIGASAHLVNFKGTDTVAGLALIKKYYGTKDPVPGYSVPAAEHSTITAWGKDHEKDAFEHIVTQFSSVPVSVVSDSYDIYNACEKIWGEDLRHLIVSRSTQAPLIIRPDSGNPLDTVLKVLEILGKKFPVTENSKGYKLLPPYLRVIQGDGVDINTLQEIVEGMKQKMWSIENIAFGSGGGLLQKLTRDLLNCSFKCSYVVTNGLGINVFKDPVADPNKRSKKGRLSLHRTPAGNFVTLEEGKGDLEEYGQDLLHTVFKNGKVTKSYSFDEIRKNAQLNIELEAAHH
Chain of NAMPT (human, recombinant, C-terminally His-tagged) (P43490 whole entry): as above

For `O=C(NCc1ccn2ccnc2c1)c1ccc(C2CCN(C(=O)C3CCOC3)CC2)s1` (stereo not drawn) [Example 261, N-(imidazo[1,2-a]pyridin-7-ylmethyl)-5-[1-(tetrahydrofuran-3-ylcarbonyl)piperidin-4-yl]thiophene-2-carboxamide], the IC50 was determined as 0.231 nM at NAMPT, 62.7 nM in test [1] and 5.1 nM in the test with PC3 cells.

For the molecule `O=C(NCc1ccn2ccnc2c1)c1ccc(C2CCN(C(=O)CC3CCOCC3)CC2)s1` [Example 262, N-(imidazo[1,2-a]pyridin-7-ylmethyl)-5-[1-(tetrahydro-2H-pyran-4-ylacetyl)piperidin-4-yl]thiophene-2-carboxamide], the IC50 at NAMPT was determined as 0.221 nM; in test [1], 3.67 nM; with PC3 cells, 1.87 nM.

Consider `CC(C)CC(=O)N1CCC(c2ccc(C(=O)NCc3ccn4ccnc4c3)s2)CC1` [Example 263, N-(imidazo[1,2-a]pyridin-7-ylmethyl)-5-[1-(3-methylbutanoyl)piperidin-4-yl]thiophene-2-carboxamide], for which the values for the IC50 (at NAMPT; in test [1]; in the test with PC3 cells) were 0.247 nM, 48.6 nM and 2.43 nM, respectively.

In the case of `O=C(NCc1ccn2ccnc2c1)c1ccc(C2CCN(C(=O)c3ccno3)CC2)s1` [Example 264, N-(imidazo[1,2-a]pyridin-7-ylmethyl)-5-[1-(1,2-oxazol-5-ylcarbonyl)piperidin-4-yl]thiophene-2-carboxamide], the IC50 on NAMPT came to 0.412 nM; in test [1], 40.4 nM; in the test with PC3 cells, 6.69 nM.

`O=C(NCc1ccn2ccnc2c1)c1ccc(-c2cnn(CC3CCOCC3)c2)s1` [Example 265, N-(imidazo[1,2-a]pyridin-7-ylmethyl)-5-[1-(tetrahydro-2H-pyran-4-ylmethyl)-1H-pyrazol-4-yl]thiophene-2-carboxamide]: the IC50 on NAMPT worked out at 0.266 nM; in test [1] it was 33.1 nM; in the test with PC3 cells, 1.59 nM.

Take `O=C(NCc1ccn2ccnc2c1)c1ccc(N2CC(CO)OC2=O)s1` (stereo not drawn) [Example 266, 5-[5-(hydroxymethyl)-2-oxo-1,3-oxazolidin-3-yl]-N-(imidazo[1,2-a]pyridin-7-ylmethyl)thiophene-2-carboxamide]: the IC50 at NAMPT turned out to be 0.333 nM; in test [1], 120 nM; in the test on PC3 cells it was 606 nM.

`O=C(NCc1ccn2ccnc2c1)c1ccc(N2C[C@H](O)CC2=O)s1` [Example 267, 5-[(4R)-4-hydroxy-2-oxopyrrolidin-1-yl]-N-(imidazo[1,2-a]pyridin-7-ylmethyl)thiophene-2-carboxamide]: the IC50 on NAMPT was 0.291 nM; in test [1], 54.3 nM; in the test with PC3 cells, 665 nM.

For the molecule `O=C(NCc1ccn2ccnc2c1)c1ccc(N2C[C@@H](O)CC2=O)s1` [Example 268, 5-[(4S)-4-hydroxy-2-oxopyrrolidin-1-yl]-N-(imidazo[1,2-a]pyridin-7-ylmethyl)thiophene-2-carboxamide], the results for the IC50 (on NAMPT; in test [1]; in the test on PC3 cells) were 0.169 nM, 755 nM and 5540 nM, respectively.

For the molecule `COCCn1cc(-c2ccc(C(=O)NCc3ccn4ccnc4c3)s2)cn1` [Example 269, N-(imidazo[1,2-a]pyridin-7-ylmethyl)-5-[1-(2-methoxyethyl)-1H-pyrazol-4-yl]thiophene-2-carboxamide], the IC50 on NAMPT is 0.169 nM; in test [1] it was 41.2 nM; in the test on PC3 cells, 15.1 nM.

Take `O=C(NCCCCC1CCN(C(=O)c2ccccc2)CC1)Nc1ccn2ccnc2c1` [Example 270, 1-[4-(1-benzoylpiperidin-4-yl)butyl]-3-imidazo[1,2-a]pyridin-7-ylurea]: the values for the IC50 (on NAMPT; in test [1]; in the test with PC3 cells) were 0.991 nM, 60.9 nM and 973 nM, respectively.

For the molecule `CS(=O)(=O)N1CCC(c2ccc(C(=O)NCc3ccn4ccnc4c3)s2)CC1` [Example 271, N-(imidazo[1,2-a]pyridin-7-ylmethyl)-5-[1-(methylsulfonyl)piperidin-4-yl]thiophene-2-carboxamide], the IC50 at NAMPT is 0.169 nM; in test [1], 51.7 nM; with PC3 cells, 2.71 nM.

As to `CCc1c(-c2ccc(C(=O)NCc3ccn4ccnc4c3)s2)cnn1CC1CCCCC1` [Example 272, 5-[1-(cyclohexylmethyl)-5-ethyl-1H-pyrazol-4-yl]-N-(imidazo[1,2-a]pyridin-7-ylmethyl)thiophene-2-carboxamide], the half-inhibitory concentration (IC50) on NAMPT worked out at 0.417 nM; in test [1], 27.2 nM; with PC3 cells, 15.6 nM.

`COC1(Cn2ncc(-c3ccc(C(=O)NCc4ccn5ccnc5c4)s3)c2C)CCCC(C)(C)C1` (stereo not drawn) [Example 273, N-(imidazo[1,2-a]pyridin-7-ylmethyl)-5-{1-[(1-methoxy-3,3-dimethylcyclohexyl)methyl]-5-methyl-1H-pyrazol-4-yl}thiophene-2-carboxamide]: the IC50 on NAMPT amounted to 0.555 nM; in test [1] it was 49.3 nM; with PC3 cells it was 2.35 nM.

For `CC(C)CCC(=O)Nc1ccc(NC(=O)NCc2ccc3nccn3c2)cc1` [Example 274, N-(4-{[(imidazo[1,2-a]pyridin-6-ylmethyl)carbamoyl]amino}phenyl)-4-methylpentanamide], the IC50 amounted to 0.196 nM at NAMPT, 17.8 nM in test [1] and 10.4 nM in the test on PC3 cells.

As for `O=C(CCC1CCCC1)Nc1ccc(NC(=O)NCc2ccc3nccn3c2)cc1` [Example 275, 3-cyclopentyl-N-(4-{[(imidazo[1,2-a]pyridin-6-ylmethyl)carbamoyl]amino}phenyl)propanamide], the figures for the IC50 (on NAMPT; in test [1]; in the test on PC3 cells) were 0.43 nM, 12.3 nM and 23.9 nM, respectively.

Consider `CC(C)OCC(=O)Nc1ccc(NC(=O)NCc2ccc3nccn3c2)cc1` [Example 276, N-(4-{[(imidazo[1,2-a]pyridin-6-ylmethyl)carbamoyl]amino}phenyl)-2-(propan-2-yloxy)acetamide], for which the IC50 at NAMPT was 0.468 nM; in test [1], 107 nM; in the test on PC3 cells, 38.1 nM.

For `O=C(CC1CCCO1)Nc1ccc(NC(=O)NCc2ccc3nccn3c2)cc1` (stereo not drawn) [Example 277, N-(4-{[(imidazo[1,2-a]pyridin-6-ylmethyl)carbamoyl]amino}phenyl)-2-(tetrahydrofuran-2-yl)acetamide], the results for the IC50 (on NAMPT; in test [1]; in the test with PC3 cells) were 0.667 nM, 103 nM and 83.2 nM, respectively.

`O=C(CC1CCOCC1)Nc1ccc(NC(=O)NCc2ccc3nccn3c2)cc1` [Example 278, N-(4-{[(imidazo[1,2-a]pyridin-6-ylmethyl)carbamoyl]amino}phenyl)-2-(tetrahydro-2H-pyran-4-yl)acetamide]: the IC50 stood at 0.621 nM at NAMPT, 102 nM in test [1] and 51.7 nM in the test on PC3 cells.

As to `O=C(CCc1ccccc1)Nc1ccc(NC(=O)NCc2ccc3nccn3c2)cc1` [Example 279, N-(4-{[(imidazo[1,2-a]pyridin-6-ylmethyl)carbamoyl]amino}phenyl)-3-phenylpropanamide], the IC50 is 0.437 nM on NAMPT, 68.8 nM in test [1] and 869 nM with PC3 cells.

Take `CC(C)CCC(=O)Nc1ccc(NC(=O)NCc2ccn3ccnc3c2)cc1` [Example 280, N-(4-{[(imidazo[1,2-a]pyridin-7-ylmethyl)carbamoyl]amino}phenyl)-4-methylpentanamide]: the half-maximal inhibitory concentration (IC50) at NAMPT worked out at 0.213 nM; in test [1] it was 11.3 nM; with PC3 cells it was 13 nM.

For `O=C(CCC1CCCC1)Nc1ccc(NC(=O)NCc2ccn3ccnc3c2)cc1` [Example 281, 3-cyclopentyl-N-(4-{[(imidazo[1,2-a]pyridin-7-ylmethyl)carbamoyl]amino}phenyl)propanamide], the IC50 was 0.214 nM at NAMPT, 5.5 nM in test [1] and 24.8 nM in the test with PC3 cells.

For `CC(C)OCC(=O)Nc1ccc(NC(=O)NCc2ccn3ccnc3c2)cc1` [Example 282, N-(4-{[(imidazo[1,2-a]pyridin-7-ylmethyl)carbamoyl]amino}phenyl)-2-(propan-2-yloxy)acetamide], the IC50 at NAMPT is 0.297 nM; in test [1], 76.5 nM; with PC3 cells, 44.7 nM.

On to `O=C(CC1CCCO1)Nc1ccc(NC(=O)NCc2ccn3ccnc3c2)cc1` (stereo not drawn) [Example 283, N-(4-{[(imidazo[1,2-a]pyridin-7-ylmethyl)carbamoyl]amino}phenyl)-2-(tetrahydrofuran-2-yl)acetamide], for which the IC50 on NAMPT was 0.264 nM; in test [1], 63.2 nM; in the test on PC3 cells, 145 nM.

Regarding `O=C(CC1CCOCC1)Nc1ccc(NC(=O)NCc2ccn3ccnc3c2)cc1` [Example 284, N-(4-{[(imidazo[1,2-a]pyridin-7-ylmethyl)carbamoyl]amino}phenyl)-2-(tetrahydro-2H-pyran-4-yl)acetamide], the IC50 on NAMPT worked out at 0.169 nM; in test [1] it was 7.96 nM; in the test on PC3 cells, 107 nM.

For the molecule `O=C(CCc1ccccc1)Nc1ccc(NC(=O)NCc2ccn3ccnc3c2)cc1` [Example 285, N-(4-{[(imidazo[1,2-a]pyridin-7-ylmethyl)carbamoyl]amino}phenyl)-3-phenylpropanamide], the IC50 came to 0.593 nM at NAMPT, 82.6 nM in test [1] and 301 nM in the test with PC3 cells.
